Experimental data: patent publication US20030056788A1, “Partial liquid breathing of fluorocarbons” (priority 1991, published 2003)

Tests used:
[1] = Surface and interfacial tensions and spreading coefficients of perfluorocarbons on saline; assay type: physicochemical; parameters: S(o on w) spreading coefficient: unit: mN/m; settings: T = 25 C; for γo/w (interfacial tension oil/water) / S(o on w) spreading coefficient: on saline; for S(o on w) spreading coefficient: S = γw/a − (γw/o + γo/a)
Description: The ability of a given substance to cover a measured surface area can be described by its spreading coefficient. The spreading coefficients for fluorocarbons can be expressed by the following equation:
S(o on w)=γw/a−(γw/o+γo/a)
Where S (o on w) represents the spreading coefficient; γ=interfacial tension; w/a=water/air; w/o=water/oil; and o/a=oil/air.
Fluorocarbons having spreading coefficients of at least one are particularly preferred. If the spreading coefficient is negative, the compound will tend to remain as a lens on the membrane surface. Adequate coverage of the lung surface is important for restoring oxygen and carbon dioxide transfer and for lubricating the lung surfaces to minimize further pulmonary trauma.
Each perfluorocarbon tested is provided together with its molecular weight and the specific variables that are used to calculate the spreading coefficient S (o on w). The perfluorocarbons reported are PFOB, perfluorotributylamine (FC-17), perfluorodecalin (APF-140), dimethyl perfluorodecalin (APF-175), trimethyl decalin (APF-200), perfluoroperhydrophenanthrene (APF-215), pentamethyl decalin (APF-240), and octamethyl decalin (APF-260).

[2] = system: rabbits following lung lavage to remove endogenous surfactant; assay: Partial liquid ventilation with PFOB in rabbit model of respiratory insufficiency induced by lung lavage; assay type: in vivo, New Zealand rabbits; settings: rabbits after lung lavage
Protocol: The following examples provide information relating to the effect of PFOB treatment on respiratory insufficiency in an experimental rabbit model. The general protocol for partial liquid ventilation of the rabbits is described below.
New Zealand rabbits weighing between 2.8 and 3.0 kg were anesthetized with 50 mg/kg of […] sodium iv and a cannula was inserted through a tracheotomy midway along the trachea with its tip proximal to the carina. Ventilation with a Servo ventilator 900C (Siemens-Elema, Sweden) was initiated using pure oxygen and zero end-expiratory pressure with a constant tidal volume of 12 ml/kg, frequency of 30/min and inspiratory time of 35%. Anesthesia was maintained with additional doses of pentobarbital, as required, and pancuronium bromide was administered as an intravenous bolus (0.1 mg/kg) and followed by a continuous infusion (0.1 mg/kg/hr) for muscle paralyzation. A solution of 5% dextrose and 0.45% NaCl was administered continuously at a rate of 10 ml/kg/hr as a maintenance fluid. A heating pad maintained core temperature at 37±1° C., monitored by an esophageal thermistor (Elektroalboratoriet, Copenhagen).
Left femoral artery and vein were each cannulated with polyvinyl catheters for arterial and central venous pressure recording and blood sampling. A special indwelling catheter (Mikro-pO2-Messkatheter, Licox) was inserted into the right femoral artery for continuous oxygen pressure monitoring (Licox, GMS, Germany). Arterial blood gas and Hb (hemoglobin) measurements were made by Osm-2 Hemoximeter and ABL-330 (Radiometer Copenhagen). Lung mechanics and end-tidal CO2 were measured by means of Lung Mechanics Calculator 940 (Siemens-Elema, Sweden) and CO2 Analyzer 930 (Siemens-Elema, Sweden), respectively. Intravascular pressure monitoring was made by using a Statham P23XL transducer (Spectramed, USA) and all tracings including ECG were recorded by a Sirecust 1280 recorder (Siemens).
After the control observations were made, lung lavage with 30 ml/kg of warm saline (37° C.) was performed to induce respiratory insufficiency. After the first lavage, positive end expiratory pressure (PEEP) was increased to 6 cmH2O and lung lavages were repeated to get an arterial pO2 below 100 mmHg with the initial ventilatory settings (between 4-6 lavages). […]
After respiratory insufficiency was induced, PFOB liquid was administered through the tracheal cannula into the animal's lungs with incremental doses of 3 ml/kg up to a total volume of 15 ml/kg. Animals were ventilated for 15 minutes after each dose of PFOB instillation with the same ventillatory settings as mentioned above and thereafter arterial blood gases, cardiocirculatory parameters and pulmonary mechanics were measured. […]

[3] = Vapor pressure of fluorocarbons

Molecule	γo/a (interfacial tension oil/air) [1] [mN/m]	γo/w (interfacial tension oil/water) [1] [mN/m]	S(o on w) spreading coefficient [1]	also measured
trimethyl decalin [APF-200]	21.4	55.9	−5.3	–
FC(F)(F)C(F)(F)C(F)(F)C(F)(F)N(C(F)(F)C(F)(F)C(F)(F)C(F)(F)F)C(F)(F)C(F)(F)C(F)(F)C(F)(F)F [FC-47, perfluorotributylamine]	17.9	55.1	–	–
dimethyl perfluorodecalin [APF-175]	20.7	55.9	−4.6	–
pentamethyl decalin [APF-240]	22.6	56.3	−6.9	–
FC(F)(F)C(F)(F)C(F)(F)C(F)(F)C(F)(F)C(F)(F)C(F)(F)C(F)(F)Br [PFOB, 1-bromo-heptadecafluoro-octane]	18.0	51.3	–	arterial oxygen pressure as percent of original (pre-lavage) value ([2]; 15 ml/kg PFOB intratracheal, n = 6): 83%; mean arterial carbon dioxide tension (in words) ([2]; after PFOB administration, post-lavage level 48.7 mmHg): decreased; mean airway pressure (in words) ([2]; increasing volumes of PFOB): decreased mean airway pressure; arterial oxygen tension (in words) ([2]; increasing volumes of PFOB 3-15 ml/kg intratracheal, compared to saline treated controls): significantly improved the arterial oxygen tension; vapor pressure ([3]; 37° C.): 14 torr
octamethyl decalin [APF-260]	22.4	56.1	−6.5	–
FC1(F)C(F)(F)C(F)(F)C2(F)C(F)(F)C(F)(F)C(F)(F)C(F)(F)C2(F)C1(F)F (stereo not drawn) [APF-140, perfluorodecalin]	18.2	55.3	–	–
FC(F)(F)C(F)(F)C(F)(F)C(F)(F)C(F)(F)C(F)(F)Br [1-bromotridecafluorohexane]	–	–	–	vapor pressure (in words) [3]: relatively high vapor pressures
FC1(F)C(F)(F)C(F)(F)C2(F)C(F)(C1(F)F)C(F)(F)C(F)(F)C1(F)C(F)(F)C(F)(F)C(F)(F)C(F)(F)C12F (stereo not drawn) [APF-215, perfluoroperhydrophenanthrene]	21.6	56.0	−5.6	–
